According to PMC12715788, “Unraveling the Potential of Small Molecule Heparin Glycomimetics in Neuroregenerative Therapeutics” (Journal of the American Chemical Society, 2025):
Where “and” joins values, the source holds several entries; their conditions need not be identical. Identical values can stand only once. Entries after “also recorded” stand apart in the source; their conditions may differ.

Assays:
FGF-1 = FGF-1 (Homo sapiens, UniProt P05230); experiment: Far-UV CD spectroscopy and CD thermal denaturation; conditions: CD thermal denaturation 10–90 °C; protein with sugar, 1:3 molar ratio
Sequence of FGF-1 (P05230 whole entry, species assumed): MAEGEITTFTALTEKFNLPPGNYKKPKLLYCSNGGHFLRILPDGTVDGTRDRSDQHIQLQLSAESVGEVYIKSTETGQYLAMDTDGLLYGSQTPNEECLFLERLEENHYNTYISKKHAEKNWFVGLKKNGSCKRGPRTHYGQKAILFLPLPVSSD
Excerpt: (§1) To select a lead compound, we complemented the affinity data with a series of studies evaluating the structural and functional implications of protein-HS glycomimetic interactions. We assessed the therapeutic safety profile of our HS glycomimetics. We also employed circular dichroism (CD) spectroscopy to assess secondary structural changes in protein conformation upon binding to native HS and HS glycomimetics. Since native HS alone produces only a minimal signal, it was ensured that its contribution would not interfere with protein-sugar complex spectra. Therefore, only the far-UV CD spectra of bare proteins and their sugar complexes were recorded. […] Upon incubation with sugars (1:3 molar ratio), significant spectral changes were observed, indicating sugar-induced alterations in secondary structure (Figure A).
(§2) We also evaluated the thermal stability of the proteins and their sugar complexes by CD-based thermal denaturation experiments. The spectra were recorded across a temperature range of 10–90 °C (Figure B). For all proteins except AT-III, the unfolding profiles were analyzed to determine the melting temperature (T m), representing the midpoint of the transition from the folded to the unfolded state, an indicator of structural integrity and resistance to thermal denaturation. The calculated values are compiled in Table .

FGF-2 [1] = biological target: T1, FGF-2 (Homo sapiens, UniProt P09038); experiment: Far-UV CD spectroscopy and CD thermal denaturation; conditions: CD thermal denaturation 10–90 °C; protein with sugar, 1:3 molar ratio
T1 sequence (P09038 134-288 limits assumed, species assumed): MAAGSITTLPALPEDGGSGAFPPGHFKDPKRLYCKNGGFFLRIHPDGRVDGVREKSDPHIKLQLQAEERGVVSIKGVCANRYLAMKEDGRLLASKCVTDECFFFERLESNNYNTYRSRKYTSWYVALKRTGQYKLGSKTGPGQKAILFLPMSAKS
Excerpt: as §1, §2

[2] = system: citrated pooled rat plasma; experiment: Activated partial thromboplastin time (aPTT) assay; conditions: citrated pooled rat plasma; highest concentration tested; control 22 s
Excerpt: To complement these findings, we performed an activated partial thromboplastin time (aPTT) assay in citrated pooled rat plasma to assess the overall impact of the compounds on the intrinsic coagulation pathway. This global clotting assay measures the time required for fibrin formation and is sensitive to anticoagulant effects. Figure F,G compare the effects of UFH, heparan sulfate, Fondaparinux, and the synthetic glycomimetics when supplemented into citrated plasma. […] As expected, UFH produced a strong, concentration-dependent anticoagulant response, prolonging the mean clotting time to 271 s at the highest concentration tested, while heparan sulfate and Fondaparinux induced weaker but measurable effects (83 and 37 s, respectively). […] The results further confirm that selective sulfation patterns can decouple GF recognition from anticoagulant function, an essential prerequisite for their translational application in regenerative medicine. […] These interactions are in line with nonspecific electrostatic binding, a feature of highly sulfated oligosaccharides known to engage different proteins via charge-based, rather than specific, biologically targeted interactions. Thus, to avoid potential off-target effects associated with highly sulfated analogues, we selected the disaccharide D2 for subsequent biological experiments.

FGF-2 [3] = biological target: T1, FGF-2; experiment: BLI competition assay with immobilized native HS for FGF-2 binding; conditions: for competition with immobilized native HS for FGF-2 binding, signal intensity: FGF-2 50 nM premixed with varying concentrations; for IC50: FGF-2 50 nM, fixed association time t = 240 s, read-out: Apparent IC50(t), competition with immobilized native HS for FGF-2 binding
Excerpt: We next examined the functional relevance of the synthetic HS glycomimetics by testing their ability to compete with native HS for FGF-2 binding using competition assays. Although direct binding assays measure the intrinsic affinity of HS glycomimetics for FGF-2, they are limited in representing the complex, multimolecular environment of biological systems. In vivo, FGF-2 activity is tightly regulated by its interactions with GAGs, which are abundant on cell surfaces and in the ECM. These interactions stabilize FGF-2 and facilitate its dimerization with FGF receptors (FGFRs), a requirement for effective signal transduction. , Thus, therapeutic candidates targeting FGF-2 must be evaluated not only for direct binding but also for their ability to modulate or disrupt GAG-mediated interactions. Therefore, we performed competition assays in which native HS was immobilized on the sensor surface. Solutions containing a fixed concentration of FGF-2 (50 nM) were premixed with varying concentrations of HS glycomimetics, functioning as inhibitors in this context, (M1, D1, D2, D3, and T1) and also with the heparin hexasaccharide (H1) (GlcNS6S-GlcA-GlcNS3S6S-IdoA2S-GlcNS6S-GlcA), a well-studied HS glycomimetic in the literature, as a positive control (Figure B). […] The progressive decrease in signal intensity with increasing inhibitor concentration directly reflects competition with immobilized HS for FGF-2 binding.

Factor Xa = experiment: AT-III-mediated chromogenic substrate assay; format: biochemical; conditions: absorbance at 405 nm
Excerpt: (§3) Active coagulation factors cleave chromogenic peptide substrates, therefore producing p-nitroaniline, a yellow-colored product with a detectable absorbance signal at λ = 405 nm. Inhibitors like heparin-AT-III complexes decrease enzyme activity and so lower absorbance readings.

AT-III = AT-III (Homo sapiens, UniProt P01008); experiment: BLI binding assay, sugars immobilized, protein as analyte
Sequence of AT-III (P01008 33-464): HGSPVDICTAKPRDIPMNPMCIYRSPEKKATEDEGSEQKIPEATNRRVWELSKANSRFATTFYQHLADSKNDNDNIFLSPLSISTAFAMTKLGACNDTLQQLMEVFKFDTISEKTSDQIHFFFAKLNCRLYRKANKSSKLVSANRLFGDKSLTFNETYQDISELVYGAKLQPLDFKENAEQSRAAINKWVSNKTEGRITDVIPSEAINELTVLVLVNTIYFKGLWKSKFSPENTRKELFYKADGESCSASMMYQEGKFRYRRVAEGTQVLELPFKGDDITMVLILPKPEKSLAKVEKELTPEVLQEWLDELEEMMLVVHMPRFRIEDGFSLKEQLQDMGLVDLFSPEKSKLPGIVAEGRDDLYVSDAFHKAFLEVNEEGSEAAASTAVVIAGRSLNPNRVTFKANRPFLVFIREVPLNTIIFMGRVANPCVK
Description: We evaluated the binding affinity of native HS and synthetic HS glycomimetics (M1, D1, D2, D3, and T1) to these proteins using biolayer interferometry (BLI). The terminal amino groups of the sugars were immobilized onto the sensor surface using standard amine coupling chemistry, and binding assays were performed by introducing the proteins as analytes at varying concentrations (Figure A). The equilibrium dissociation constants (K D) were determined using the steady-state affinity curve fitting.

Factor IIa (thrombin) = experiment: AT-III-mediated chromogenic substrate assay; format: biochemical; conditions: absorbance at 405 nm
Excerpt: as §3

hippocampal neurons = experiment: Patch clamp recording of spontaneous synaptic activity in hippocampal neurons; format: cell-based, rat; conditions: 24 h treatment, neurons at 8 days in vitro, voltage clamp −58 mV; mean ± SEM
Excerpt: In another set of experiments, we investigated the impact of D2+FGF-2, with respect to that of FGF-2 alone, on the formation of functionally active neuronal networks. To this aim, we used hippocampal neurons developed in vitro for 1 week, from which, through the single-cell patch clamp technique, we recorded in voltage clamp mode spontaneous synaptic activity. […] While neurons treated with FGF-2 alone presented sPSCs of fluctuating amplitude (in average 42 ± 5 pA) at a frequency of 1.23 ± 0.38 Hz, the coapplication of D2 with the growth factor induced a statistically significant enhancement of both these values (for D2+FGF-2, sPSCs frequency: 2.52 ± 0.47 Hz, and sPSCs amplitude: 75 ± 14 pA, p < 0.05 FGF-2 vs D2+FGF-2, Figure E–F).

[4] = system: rat dissociated hippocampal neurons; experiment: Neurite morphometry in dissociated hippocampal neurons; format: cell-based; conditions: 24 h treatment, 1 day in vitro, D2 1 μM, FGF-2 40 ng/mL, mean ± SEM
Description: In the pursuit of this, we used rat dissociated hippocampal neurons as an in vitro model system. We assessed the impact of HS glycomimetics on neuronal morphology, using immunofluorescence imaging and quantitative morphometric analysis, and on synaptic functionality through electrophysiological monitoring of spontaneous neuronal activity.
During the first day of differentiation in vitro (Table S7.1 in SI), neurons were treated for 24 h with either control medium, glycomimetic D2 (1 μM), FGF-2 (40 ng/mL) alone, or a combination of FGF-2 and D2 (40 ng/mL and 1 μM, respectively). After treatments, cultures were fixed and immuno-labeled with antibodies against the neuronal marker β-Tubulin III to study cell morphology. […] Quantitative analysis further corroborated these observations (Figure B–C).

Row | Compound | FGF-1 Sample Tm (FGF-1) | FGF-2 Sample Tm (FGF-2 [1]) | aPTT mean clotting time [2] | IC50 (FGF-2 [3]) | competition with immobilized native HS for FGF-2 binding, signal intensity (FGF-2 [3]) | also measured
1 | CC(=O)N[C@H]1[C@@H](OCCN)O[C@H](CO)[C@@H](O[C@@H]2O[C@@H](C(=O)O)[C@@H](OS(=O)(=O)O)[C@H](O)[C@H]2OS(=O)(=O)O)[C@@H]1O [D1, IdoA2S4S-GlcNAc] | 44.5 °C and 44.5 ± 0.4 °C | 51.6 °C and 51.6 ± 1.9 °C | 22.5 s | – | much weaker effect; also recorded: minimal inhibition | –
2 | NCCCCCOC1OC(COS(=O)(=O)O)C(OC2OC(C(=O)NNS(=O)(=O)O)C(OS(=O)(=O)O)C(O)C2OS(=O)(=O)O)C(O)C1NS(=O)(=O)O (stereo not shown) [D3, GlcANS6S-GlcNS6S] | 45.3 °C and 45.3 ± 0.3 °C | 54.2 °C and 54.2 ± 1.2 °C | 25.3 s | 84500 nM | dose-dependent reduction in signal intensity | –
3 | CO[C@H]1O[C@H](COS(=O)(=O)O)[C@@H](O[C@@H]2O[C@@H](C(=O)O)[C@@H](O[C@H]3O[C@H](COS(=O)(=O)O)[C@@H](O[C@@H]4O[C@H](C(=O)O)[C@@H](O[C@H]5O[C@H](COS(=O)(=O)O)[C@@H](O)[C@H](O)[C@H]5NS(=O)(=O)O)[C@H](O)[C@H]4O)[C@H](OS(=O)(=O)O)[C@H]3NS(=O)(=O)O)[C@H](O)[C@H]2OS(=O)(=O)O)[C@H](O)[C@H]1NS(=O)(=O)O [Fondaparinux, reference compound] | – | – | 37 s | – | – | AT-III-mediated Factor Xa activity (Factor Xa): selectively inhibited
4 | FGF-2: fibroblast growth factor-2, basic FGF, applied alone at 40 ng/mL | – | – | – | – | – | sPSCs amplitude (hippocampal neurons): 42 ± 5 pA; sPSCs frequency (hippocampal neurons): 1.23 ± 0.38 Hz; number of neurites emerging from the cell body ([4]; control 3.6 ± 0.22): 5.4 ± 0.28 neurites per neuron; length of the longest neurite ([4]; control 38 ± 2): 45 ± 4 μm

More lines, main results first:

Row | FGF-1 Sample Tm (FGF-1) | FGF-2 Sample Tm (FGF-2 [1]) | aPTT mean clotting time [2] | IC50 (FGF-2 [3]) | Compound | competition with immobilized native HS for FGF-2 binding, signal intensity (FGF-2 [3]) | also measured
5 | 43.3 °C and 43.3 ± 0.4 °C | 50.7 °C and 50.7 ± 0.2 °C | 22 s | – | CC(=O)N[C@H]1[C@@H](OCCN)O[C@H](COS(=O)(=O)O)[C@@H](O)[C@@H]1O [M1, GlcNAc6S] | much weaker effect; also recorded: minimal inhibition | –
6 | 46.3 °C and 46.3 ± 0.5 °C | 59.3 °C and 59.3 ± 2.2 °C | 28.5 s | 900 nM and 910 nM | NC[C@H]1O[C@H](O[C@H]2[C@H](OS(=O)(=O)O)[C@@H](OS(=O)(=O)O)[C@@H](O[C@H]3[C@H](OS(=O)(=O)O)[C@@H](OS(=O)(=O)O)[C@@H](O[C@H]4[C@H](OS(=O)(=O)O)[C@@H](OS(=O)(=O)O)[C@@H]5OC[C@H]4O5)O[C@@H]3COS(=O)(=O)O)O[C@@H]2COS(=O)(=O)O)[C@H](OS(=O)(=O)O)[C@@H](OS(=O)(=O)O)[C@@H]1OS(=O)(=O)O [T1, Glc2S3S-Glc2S3S6S-Glc2S3S6S-Glc2S3S] | dose-dependent reduction in signal intensity | binding to AT-III (AT-III): bound to AT-III; AT-III-mediated Factor Xa activity (Factor Xa): slight interactions; AT-III-mediated Factor IIa activity (Factor IIa (thrombin)): slight interactions
7 | – | – | – | 2610 nM | GlcNS6S-GlcA-GlcNS3S6S-IdoA2S-GlcNS6S-GlcA [H1, reference compound] | – | –
